This note sets out measurements from ChEMBL document CHEMBL1201862, “PubChem BioAssay data set” (2004).

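Step 1: Grow cells in 96-well plates. Step 2: Expose to compound for 48 hours at 5 concentrations. Step 3: Interpolate endpoints linearly; if unreached, use highest concentration. At the GI50, growth is halved.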 Activity calls are given as the source filed them. Cut-off read from the data, not from the text of the source: active = GI50 up to about 1.1 µM and inactive = higher. Starred links: 1 amine or outer side, 2 acyl side, 3 side chain; linkers in the order of their positions; H or OH if unused. Positions of bridges follow the written chain, without caps; N, C: chain ends. Non-standard residues stand in square brackets, D forms with d. Residues, ends and D or L forms follow the SMILES beside them. *: point of attachment. X40 = CC[C@H](C)[C@@H](N[*:1])[C@@H](O)CC(=O)[*:2]; NMeY = CN[C@@H](Cc1ccc(O)cc1)C(=O)O; dNMeL = CN[C@H](CC(C)C)C(=O)O; Hiv = CC(C)[C@H](O)C(=O)O; Pyruvoyl = CC(=O)C(=O)*

Common to all, as to assay: NCI tumour cell line growth inhibition, 48 h
Test [1] has as its system COLO 205.
The test system of test [2] is EKVX.
Test [3] deals with SK-MEL-5.
Test [4] has as its system MCF7.
Test [5] deals with UACC-257.
Test [6] has as its system LOX IMVI.
Test [7] concerns HCC 2998.
For test [8], the system named is OVCAR-4.
Test [9] has as its system NCI/ADR-RES.
In test [10] the test system is RPMI-8226.
The subject of test [11] is SK-MEL-2.
Test [12] has as its system OVCAR-5.
For test [13], the system named is SR.
Test [14] relates to 786-0.
Test [15] relates to CAKI-1.
For test [16], the system named is UO-31.
Test [17] concerns MOLT-4.
Test [18] relates to MDA-MB-435.
For test [19], the system named is OVCAR-8.
Test [20] relates to ACHN.

As to `CN(C)/C=N/S(=O)(=O)c1nn2c(C=O)c(-c3ccccc3)nc2s1`, the GI50 in [1] is 4.53 µM (inactive); in test [2], 30.5 µM (inactive); in [3], 11.5 µM (inactive); in [4], 4.93 µM (inactive); in [5], 24.2 µM (inactive); in test [6], 14.7 µM (inactive). The GI50 is 36.1 µM (inactive) in test [7]; 22.7 µM (inactive) in test [8]; 23.2 µM (inactive) in test [9]; 3.43 µM (inactive) in test [10]; 43 µM (inactive) in [11]; 47.1 µM (inactive) in test [12]. The GI50 in [13] was 5.74 µM (inactive); in test [14] it was 5.62 µM (inactive); in test [15] it was 0.658 µM (active); in test [16] it was 5.36 µM (inactive); in [17], 3.21 µM (inactive); in [18], 12.4 µM (inactive). Also, the GI50 in test [19] was 8.41 µM (inactive); in test [20] it was 5.65 µM (inactive).

As for `CCC1=[N+](CC)CCN1CC`, the GI50 in test [1], in [2], in test [3], in test [4], in test [5] and in test [6] was > 100 µM (inactive) each time. Besides, the GI50 in test [7], in test [8], in test [9], in [10], in test [11] and in [12] was > 100 µM (inactive) throughout. The GI50 in test [13], in test [14], in test [15], in test [16], in [17] and in [18] was > 100 µM (inactive) in each case. Moreover, the GI50 in test [19] and in test [20] was > 100 µM (inactive) throughout.

Consider `C=C1C(=O)OC2C1C(=O)C/C(C)=C/CCC1(C)OC21` (stereo not given), for which the GI50 is 5.45 µM (inactive) in test [1]; 25.2 µM (inactive) in [2]; 19.3 µM (inactive) in [3]; 8.63 µM (inactive) in test [4]; 20.1 µM (inactive) in test [5]; 2.47 µM (inactive) in test [6]. Further, the GI50 in test [7] is 18.9 µM (inactive); in test [8], 18.7 µM (inactive); in test [9] it was 31 µM (inactive); in [10], 12.3 µM (inactive); in test [11] it was 18.5 µM (inactive); in [12], 17.7 µM (inactive). Also, the GI50 in test [13] is 3.33 µM (inactive); in test [14] it was 14 µM (inactive); in test [15], 14.7 µM (inactive); in test [16], 15.2 µM (inactive); in test [17], 17.3 µM (inactive); in test [18] it was 15.4 µM (inactive). The GI50 in test [19] is 25.6 µM (inactive); in [20], 10.5 µM (inactive).

`CCCc1nnc2sc(COc3ccc(OCc4nn5c(CCC)nnc5s4)c(Cl)c3)nn12`: the GI50 is 23.2 µM (inactive) in [1]; 14.3 µM (inactive) in [2]; 7.35 µM (inactive) in [3]; 20.9 µM (inactive) in test [4]; 20.3 µM (inactive) in test [5]; 33.7 µM (inactive) in test [6]. Moreover, the GI50 in test [7] is 23.8 µM (inactive); in test [8], 14.7 µM (inactive); in test [9], 30.5 µM (inactive); in test [10], 19.5 µM (inactive); in test [11], 42.1 µM (inactive); in test [12], 50.4 µM (inactive). Also, the GI50 in test [13] is 17.8 µM (inactive); in [14], 28.5 µM (inactive); in [15], 19.1 µM (inactive); in [16], 14.6 µM (inactive); in test [17], 24.9 µM (inactive); in test [18] it was 20.5 µM (inactive). Also, the GI50 was 31 µM (inactive) in test [19] and 20.9 µM (inactive) in test [20].

For the molecule `Cc1nn2c(=O)c([N+](=O)[O-])c(/C=C/c3ccc(F)cc3)nc2s1`, the GI50 in test [1] is 12.1 µM (inactive); in test [2], 5.64 µM (inactive); in [3], 7.94 µM (inactive); in [4], 3.4 µM (inactive); in [5], 10.9 µM (inactive); in test [6] it was 2.79 µM (inactive). Moreover, the GI50 in test [7] is 11.4 µM (inactive); in test [8], 11 µM (inactive); in test [9], 9.77 µM (inactive); in test [10], 3.51 µM (inactive); in [11], 9.91 µM (inactive); in test [12], 9.89 µM (inactive). Further, the GI50 is 3.8 µM (inactive) in [13]; 10.9 µM (inactive) in test [14]; 8.67 µM (inactive) in test [15]; 8.75 µM (inactive) in test [16]; 10.1 µM (inactive) in test [17]; 4.33 µM (inactive) in test [18]. The GI50 in test [19] was 6.07 µM (inactive); in test [20], 11.5 µM (inactive).

As for `CCCc1cn2c(/C=N/N=C(N)N)c(-c3c(OC)ccc(OC)c3[N+](=O)[O-])nc2s1`, the GI50 in [1] was 2.16 µM (inactive); in test [2], 18 µM (inactive); in test [3], 13.3 µM (inactive); in test [4], 2.81 µM (inactive); in test [5], 7.08 µM (inactive); in test [6] it was 3.02 µM (inactive). For the same molecule, the GI50 in [7] was 2.57 µM (inactive); in test [8], 20.2 µM (inactive); in [9] it was 19.8 µM (inactive); in test [10], 2.54 µM (inactive); in [11], 16.7 µM (inactive); in test [12] it was 15.6 µM (inactive). Further, the GI50 is 2.03 µM (inactive) in test [13]; 9.89 µM (inactive) in [14]; 5.57 µM (inactive) in test [15]; 20.4 µM (inactive) in test [16]; 1.94 µM (inactive) in test [17]; 5.42 µM (inactive) in test [18]. Further, the values for the GI50 in test [19] and in test [20] were 14.6 µM (inactive) and 18 µM (inactive), respectively.

Turning to `CC[C@H](C)[C@H]1NC(=O)[C@@H](NC(=O)[C@@H](CC(C)C)N(C)C(=O)[C@@H]2CCCN2C(=O)C(C)=O)[C@@H](C)OC(=O)[C@H](Cc2ccc(OC)cc2)N(C)C(=O)[C@@H]2CCCN2C(=O)[C@H](CC(C)C)NC(=O)[C@H](C(C)C)OC(=O)C[C@@H]1O` (Pyruvoyl-P[dNMeL]T[X40][Hiv]LP[NMeY](Me); ester 3-C), the GI50 in test [1] was 0.00368 µM (active); in test [2] it was 0.0031 µM (active); in test [3] it was 0.00393 µM (active); in test [4] it was 0.00232 µM (active); in test [5] it was 0.00594 µM (active); in test [6] it was 0.00428 µM (active). The GI50 in test [7] is 0.00261 µM (active); in [8], 0.00562 µM (active); in test [9], 0.226 µM (active); in test [10] it was 0.00545 µM (active); in test [11], 0.0047 µM (active); in test [12], 0.00632 µM (active). Also, the GI50 is 0.001 µM (active) in test [13]; 0.00361 µM (active) in test [14]; 0.0581 µM (active) in test [15]; 0.01 µM (active) in test [16]; 0.00423 µM (active) in [17]; 0.00485 µM (active) in test [18]. In addition, the GI50 in test [19] is 0.006 µM (active); in test [20], 0.0203 µM (active).

Consider `c1ccc2c(c1)nc1n2CSCC1`, for which the GI50 in [1], in test [2], in test [3], in [4], in test [5] and in test [6] was > 100 µM (inactive) in each case. For the same molecule, the GI50 in test [7], in test [8], in test [9], in [10], in [11] and in [12] was > 100 µM (inactive) throughout. Further, the GI50 in test [13], in test [14], in test [15], in [16], in [17] and in [18] was > 100 µM (inactive) each time. The GI50 in [19] and in [20] was > 100 µM (inactive) in each case.

As to `CC(C)(C)SC1=CCC[C@@H](P(=O)(c2ccccc2)c2ccccc2)[C@@H]2CCC[C@@H]12`, the GI50 was 18 µM (inactive) in [1]; 18.6 µM (inactive) in test [2]; 17.7 µM (inactive) in test [3]; 16.2 µM (inactive) in [4]; 17 µM (inactive) in test [5]; 17.5 µM (inactive) in [6]. In addition, the GI50 in test [7] was 16.2 µM (inactive); in [8], 14.3 µM (inactive); in test [9] it was 17.2 µM (inactive); in test [10], 19.1 µM (inactive); in [11] it was 16.5 µM (inactive); in test [12], 13.6 µM (inactive). The GI50 was 17 µM (inactive) in test [13]; 16.7 µM (inactive) in test [14]; 13.8 µM (inactive) in test [15]; 16.5 µM (inactive) in test [16]; 16 µM (inactive) in test [17]; 15 µM (inactive) in test [18]. Further, the GI50 in test [19] is 18.3 µM (inactive); in [20] it was 16.5 µM (inactive).
